For seven molecules, Relative binding affinity results are on record in ChEMBL document CHEMBL1136264, “Syntheses of sphingosine-1-phosphate stereoisomers and analogues and their interaction with EDG receptors” (Bioorg Med Chem Lett, 2003).

Calls of active or inactive are those of the source. The rule behind the calls is not given here.

What all share (assay type): cell-based
For experiment [1], the target named is Sphingosine 1-phosphate receptor 3 (Homo sapiens) (UniProt Q99500). Nature of the experiment: In vitro binding affinity towards Endothelial differentiation G-protein coupled receptor 3 in CHO cells using [3H]S1P as radioligand relative to SIP.
Sphingosine 1-phosphate receptor 3 (Homo sapiens), sequence (Q99500 whole entry): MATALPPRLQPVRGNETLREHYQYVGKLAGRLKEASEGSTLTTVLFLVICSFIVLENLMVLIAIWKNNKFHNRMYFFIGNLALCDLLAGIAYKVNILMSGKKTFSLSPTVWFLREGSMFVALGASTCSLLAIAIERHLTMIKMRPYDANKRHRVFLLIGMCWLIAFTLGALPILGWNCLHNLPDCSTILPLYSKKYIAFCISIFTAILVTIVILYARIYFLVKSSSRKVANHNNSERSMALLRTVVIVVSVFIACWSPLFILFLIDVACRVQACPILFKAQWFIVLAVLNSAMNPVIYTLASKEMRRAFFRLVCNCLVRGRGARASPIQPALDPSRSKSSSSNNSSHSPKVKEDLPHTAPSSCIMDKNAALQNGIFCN
Experiment [2] deals with Sphingosine 1-phosphate receptor 2 (Homo sapiens) (UniProt O95136). Put plainly: In vitro binding affinity towards Endothelial differentiation G-protein coupled receptor 5 in CHO cells using [3H]S1P as radioligand relative to SIP.
Sphingosine 1-phosphate receptor 2 (Homo sapiens), sequence (O95136 whole entry): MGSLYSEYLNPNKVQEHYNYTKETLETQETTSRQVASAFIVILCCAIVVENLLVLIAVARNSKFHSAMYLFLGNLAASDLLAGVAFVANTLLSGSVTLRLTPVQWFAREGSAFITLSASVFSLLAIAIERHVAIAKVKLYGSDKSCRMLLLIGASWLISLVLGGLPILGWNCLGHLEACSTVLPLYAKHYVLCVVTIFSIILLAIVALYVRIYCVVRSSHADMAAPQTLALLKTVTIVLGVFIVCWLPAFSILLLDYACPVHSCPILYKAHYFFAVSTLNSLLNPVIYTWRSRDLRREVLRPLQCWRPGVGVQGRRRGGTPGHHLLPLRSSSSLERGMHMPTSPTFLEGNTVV
The target in experiment [3] is Sphingosine 1-phosphate receptor 1 (Homo sapiens) (UniProt P21453). Put plainly: In vitro binding affinity towards Endothelial differentiation G-protein coupled receptor 1 in CHO cells using [3H]S1P as radioligand relative to SIP.
Sphingosine 1-phosphate receptor 1 (Homo sapiens), sequence (P21453 whole entry): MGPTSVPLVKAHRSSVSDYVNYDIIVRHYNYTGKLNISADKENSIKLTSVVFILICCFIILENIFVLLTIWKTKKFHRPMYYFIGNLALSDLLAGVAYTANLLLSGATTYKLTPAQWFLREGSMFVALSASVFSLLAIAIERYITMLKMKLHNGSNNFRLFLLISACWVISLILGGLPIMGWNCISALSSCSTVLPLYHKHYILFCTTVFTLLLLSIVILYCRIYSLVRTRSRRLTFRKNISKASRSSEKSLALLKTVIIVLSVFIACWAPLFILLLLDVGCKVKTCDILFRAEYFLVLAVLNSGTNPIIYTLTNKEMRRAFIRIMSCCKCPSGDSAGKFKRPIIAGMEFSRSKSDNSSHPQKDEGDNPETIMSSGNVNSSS
In experiment [4] the target is Sphingosine 1-phosphate receptor 3 (Homo sapiens) (UniProt Q99500). Nature of the experiment: In vitro binding affinity towards Endothelial differentiation G-protein coupled receptor 3 in CHO cells using [3H]S1P as radioligand relative to SIP; Not active.
Experiment [5] has as its target Sphingosine 1-phosphate receptor 2 (Homo sapiens) (UniProt O95136). Put plainly: In vitro binding affinity towards Endothelial differentiation G-protein coupled receptor 5 in CHO cells using [3H]S1P as radioligand relative to SIP; Not active.
For experiment [6], the target named is Sphingosine 1-phosphate receptor 1 (Homo sapiens) (UniProt P21453). Nature of the experiment: In vitro binding affinity towards Endothelial differentiation G-protein coupled receptor 1 in CHO cells using [3H]S1P as radioligand relative to SIP; Not active.

In the case of `CCCCCCCCCCCCC/C=C/[C@H](O)[C@H](N)COP(=O)(O)O`, the Relative binding affinity in experiment [1] turned out to be 20%; in experiment [2] it was 41%; in experiment [3] it was 7.4%.
The corresponding values for `CCCCCCCCCCCCCCC[C@@H](O)[C@@H](N)COP(=O)(O)O` are 86%, 54% and 41%.
The matching figures for `CCCCCCCCCCCCCCC[C@H](O)[C@@H](N)COP(=O)(O)O`: 51%, 30% and 12%.
Take `CCCCCCCCCCCCC/C=C/[C@H](O)[C@@H](N)COP(=O)(O)O`: the Relative binding affinity in experiment [1] was 46%; in experiment [2], 23%; in experiment [3] it was 27%.
As for `CCCCCCCCCCCCC/C=C/[C@@H](O)[C@@H](N)COP(=O)(OC)OC`, the Relative binding affinity result in experiment [4], in experiment [5] and in experiment [6] was “inactive” each time.
In experiment [1], `CCCCCCCCCCCCCCCC[C@@H](N)COP(=O)(O)O` registered a Relative binding affinity of 29%.
Regarding `CCCCCCCCCCCCCCC[C@H](O)[C@H](N)COP(=O)(O)O`, the Relative binding affinity result in experiment [4], in experiment [5] and in experiment [6] was “inactive” each time.
